Results as given in US20100275328A1, “METHOD OF SELECTIVELY PRODUCING MALE OR FEMALE STERILE PLANTS” (Syngenta Limited, priority 2003, published 2010).

Columns and labels:
[1] = tested on: Nicotiana tabacum var. Samsun; assay: Conditional female sterility of transgenic tobacco expressing mutant D-amino acid oxidase in female floral tissue; assay type: in vivo; conditions: for seed production after treatment / pollen production after treatment: transgenic tobacco; for seed production after treatment: female floral promoter-DAMOX, foliar spray, root drench or bud application; for pollen production after treatment: same treatment conditions
Experimental: Tobacco leaf discs are transformed with the recombinant binary vectors using methods similar to those described in Horsch et al (1985) Science, 227, 1229-1231. Many variations of the method may be used. The binary vector can be transformed into, for example, Agrobacterium tumefaciens strain LBA 4404 using the freeze thaw method of transformation. Tobacco transformation and whole plant regeneration is performed using Nicotiana tabacum var. Samsun according to protocols described by Draper et al (Plant Genetic Transformation, Blackwell Sci. Pub. 1989). Transformation events are selected on MS-media containing kanamycin or other suitable antibiotic. The presence of integrated transgenes is confirmed by PCR. Plants are regenerated and allowed to reach maturity and selfed on to produce seed. Northern and/or Western analysis is used to confirm tissue-specific expression of the D-amino acid oxidase genes. The selected plants are self-fertile but have the condition of conditional female sterility. Seeds of the T1 generation are planted out. Once plantlets have grown to a sufficient size they are tested by PCR for the presence of transgene. PCR positive plants are transferred to the greenhouse. These plants are fully fertile in the absence of exogenously applied proherbicide. A subset of these (putatively) conditionally sterile plants are treated with D-phosphinothricin or D-aspartate or D-glutamate in various amounts and at varying growth stages. Such treatments are carried out on the T1 plants confirmed as PCR positive for the D-amino acid oxidase gene, or, equally, such treatments are carried out directly on plants of the To generation (which are vegetatively cloned so that untreated clones of each event may be set aside for seed production). […] For example these amino acids are pure D enantiomers or, alternatively, are DL racemates. For example, they are applied as a foliar spray, prior to or during the early stages of flower formation, at rates usually between 0.25 and 20 kg/ha. Amino acids which may crystallise out of solution on the leaves following foliar application may be redissolved and remobilised for leaf uptake by further applications of water as a spray mist. Amino acids are, for example, also applied as a root drench and optionally, further applied as ˜50 ul of a 10-200 mM solution flooded directly into the buds of emerging florets. Pollen from the treated plants is collected and viability is tested. […] Controls include both transgenic and non-transgenic plants and are grown under identical conditions and under an identical regime of physical treatments except that treatment solutions are either water or an equivalent concentration of pure L-amino acid.
In one variant of the method, the amino acid applied is racemic DL phosphinothricin. In this case, the DNA construct used for transformation comprises, in addition to the DNA sequence encoding a D-amino acid oxidase under operable expression control of a tissue specific female floral promoter region such as ‘stig 1’, also a DNA sequence (EMBL: A02774) a […] under operable control of a promoter region such as the region 5′ of the translational start of the plastocyanin gene of the Pisum sativum plastocyanin gene (EMBL accession number X16082). For example, the construct is the same as depicted in FIG. 1.
The plastocyanin promoter region provides for preferential expression in the green tissues of the plant. […] Furthermore, in the absence of the heterologous D-amino acid oxidase being co-expressed in the floral tissues, the plastocyanin/PAT gene combination provides essentially complete reproductive tolerance with no significant loss of yield despite the PAT expression level being low or non-existent in many of the critical floral tissues when expressed under control of this promoter region. […]

[2] = tested on: D-amino acid oxidase; assay: Control experiments: oxidation of pure L and pure D form of phosphinothricin by D-amino acid oxidase; assay type: biochemical, Rhodotorula gracilis; conditions: oxygen electrode
Experimental: Approximately 7 g wet weight of cells is washed in water. The cells are resuspended in an equal volume of 50 mM/Mops/KOH buffer at pH 7.0 containing 2 mM EDTA, 2 mM DTT and 0.01 mM FAD. Cells are evenly suspended using a glass homogeniser and then disrupted using a one shot head in the Constant Systems (BudBrooke Rd, Warwick U.K.) Basic Z cell disrupter at 13500 psi. The crude extract is kept cold (−4° C.) centrifuged at 30,000 gav for 1 h and the pellet discarded. Some of the extract protein is run out on an SDS PAGE gel stained with Coomassie Blue and, through side by side comparison with similarly prepared extracts of cells containing only ‘empty’ pET vector it is estimated that 2-50% of the total soluble protein in the extract is D-amino acid oxidase. Some of the extract protein is exchanged into 50 mM Mops/KOH buffer at pH 7.0 containing 0.01 mM FAD. This is diluted with the same buffer in a standard oxygen electrode cell (calibrated at 25° C. between zero and a saturated concentration of oxygen). Optionally, the D-amino acid oxidase is further purified using ion-exchange, phenyl sepharose, fractional ammonium sulphate precipitation and gel filtration. […] Final amounts of protein in the cell vary up to 5 mg depending on the level of activity being measured. Rates of oxygen consumption (after substraction of any drift in the bases line) are measured.

[3] = tested on: Tobacco plants; assay: Conditional male sterility of transgenic tobacco expressing mutant D-amino acid oxidase in male floral tissue; assay type: in vivo; conditions: rates between 250 g/ha and 5 kg/ha; TAP1 or TA29-DAMOX plus plastocyanin-PAT tobacco
Experimental: Tobacco plant material is transformed, via Agrobacterium, with vector and transgenic plants are regenerated in a similar manner to that described in the previous example. The plants produced are self-fertile but are conditionally male sterile. Seeds of the T1 generation are planted out into soil. Once plantlets have grown to a sufficient size they are tested by PCR for the presence of transgene. PCR positive plants are transferred to the greenhouse. These plants are fully fertile in the absence of exogenously applied proherbicide. A subset of these putatively conditionally sterile T1 plants, or, alternatively plantlets of T0 ‘events’ (direct regenerants from transformation) are treated with D-phosphinothricin or D-aspartate or D-glutamate in various amounts and at varying growth stages. Where To plants are treated they are vegetatively cloned so that untreated siblings of the events are set aside for seed production. […] For example these amino acids are pure D enantiomers or, alternatively, are DL racemates. For example, they are applied as a foliar spray, prior to or during the early stages of flower formation, at rates usually between 0.25 and 20 kg/ha. Amino acids which may crystallise out of solution on the leaves following foliar application may be redissolved and remobilised for leaf uptake by further applications of water as a spray mist. […]

[4] = tested on: wheat; assay: Reproductive tolerance of wheat containing PAT gene under barley plastocyanin promoter; assay type: in vivo; conditions: wheat with PAT under barley plastocyanin promoter; rates of at least 2 kg/ha
Description: The current invention provides a method of overcoming the problem of enabling the use of a cheap commercial herbicide, DL phosphinothricin, as both weed control and hybridising agent in the production of hybrid cereals and which method, furthermore, provides resultant hybrid cereals or rice in which DL phosphinothricin (or L-phosphinothricin) can be safely used for weed control without substantial loss of yield. As a yet further benefit, selfed seed from the F1 generation which may later arise as volunteers in subsequent crops will be easier to manage since they, themselves, will generally be sterile if sprayed with controlling amounts of DL phosphinothricin. The same holds for the progeny of pollen outcrossing from the F1 plants to weeds (e.g red rice) or other cereals. The current invention provides genes and enzymes that convert a non-phytotoxic component, D-phosphinothricin, of a commercial herbicide formulation DL phosphinothricin, into the active L form. The PAT gene which converts L-phosphinothricin to N-acetyl L-phosphinothricin is known already and is used commercially to provide tolerance to DL phosphinothricin in crops. […]

[5] = rates between 250 g/ha and 5 kg/ha, stig1-DAMOX plus plastocyanin-PAT tobacco

Row | Structure (SMILES) | seed production after treatment [1] | pollen production after treatment [1] | oxidation of pure enantiomer of phosphinothricin [2] | further results
1 | N[C@H](CC(=O)O)C(=O)O [D-aspartate] | relatively little or no seed | near normal levels of viable pollen | – | –
2 | N[C@H](CCC(=O)O)C(=O)O [D-glutamate] | relatively little or no seed | near normal levels of viable pollen | – | –
3 | CP(=O)(O)CC[C@@H](N)C(=O)O [D-phosphinothricin] | relatively little or no seed | near normal levels of viable pollen | up to twice the rate that the DL racemate is | –
4 | CP(=O)(O)CCC(N)C(=O)O (stereo not drawn) [DL phosphinothricin] | – | – | – | reproductive tolerance to the herbicide ([1]; plastocyanin promoter/PAT gene, rates in excess of 2 kg/ha): substantially complete reproductive tolerance; female fertility of treated plants [1, 5]: rendered conditionally female sterile; visible damage of treated plants [1, 5]: not visibly damaged; male fertility of treated plants [3]: rendered conditionally male sterile; visible damage of treated plants [3]: not visibly damaged; reproductive tolerance to application [4]: substantially reproductively tolerant
5 | CP(=O)(O)CC[C@H](N)C(=O)O [pure L-form, L-phosphinothricin] | – | – | not oxidised at detectable levels | –
